According to PubChem BioAssay (NCI):
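Exposure lasted 48 hours, with cells grown in 96-well plates and compounds tested at five concentrations. TGI is the concentration that stops growth completely.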 Where a SMILES comes first, the peptide text is derived from it. [ ]: non-standard residue; d: D form. The star is where a group is joined. X28 = COC1=CC(=O)N(C(=O)[C@@H](O*)C(C)C)[C@H]1Cc1ccccc1; NMeL = CN[C@@H](CC(C)C)C(=O)O; Cbz = O=C(OCc1ccccc1)*

How the values were obtained:
Experiment in all cases: NCI tumour cell line growth inhibition, 48 h
[1] = test system: COLO 205 colon
[2] = test system: MOLT-4 leukemia
[3] = test system: MDA-MB-231 breast
[4] = test system: BT-549 breast
[5] = test system: U251 CNS
[6] = test system: HCT-15 colon
[7] = test system: NCI-H226 lung
[8] = test system: SF-268 CNS
[9] = test system: A549 NSCLC
[10] = test system: SK-MEL-2 melanoma
[11] = test system: OVCAR-5 ovarian
[12] = test system: OVCAR-8 ovarian
[13] = test system: K-562 leukemia
[14] = test system: RPMI-8226 leukemia
[15] = test system: SR leukemia

Compound	TGI [1] [µM]	TGI [2] [µM]	TGI [3] [µM]	TGI [4] [µM]	TGI [5] [µM]	TGI [6] [µM]	TGI [7] [µM]	TGI [8] [µM]	TGI [9] [µM]	TGI [10] [µM]	TGI [11] [µM]	TGI [12] [µM]	TGI [13] [µM]	TGI [14] [µM]	TGI [15] [µM]
CC(=O)C1C(=O)C(=O)N(c2ccc([N+](=O)[O-])cc2Cl)C1=O (stereo unspecified)	> 100	> 100	> 100	> 100	> 100	> 100	> 100	> 100	> 100	> 100	> 100	> 100			
N#CCCCCC12C3C(=O)N(c4ccccc4)C(=O)C3ON1O[C@@H]1C(=O)N(c3ccccc3)C(=O)[C@@H]12 (stereo partly specified)	> 100	> 100	> 100	> 100	> 100	> 100	> 100	> 100	> 100		> 100	> 100	> 100		
S=C1NC2=C(COC/C2=C\c2ccccc2Cl)C(c2ccccc2Cl)N1 (stereo unspecified)	33.5	44.5	> 100	> 100	> 100	> 100	> 100	> 100		67.1	> 100	> 100	> 100	> 100	20.9
CCOC(=O)C1CCCC1S(=O)(=O)c1ccc(C)cc1 (stereo unspecified)	> 100	> 100	> 100	> 100	> 100	> 100	> 100	> 100	> 100		> 100	> 100	> 100	> 100	> 100
CCCCCCCCC[C@@H]1C[C@@H]2CCC3C(C(=O)OCCCCNC(=O)OCc4ccccc4)=C(C)NC(=N1)N32 (stereo partly specified)	2.97	6.41	6.09	12.6	10.3	8.06	11.6	6.66	23.3	4.84	21.4	8.7	3.83	4.44	
CN1CCN(CCCCNc2cc3c4ccccc4c(NCCCCN4CCN(C)CC4)cc3c3ccccc23)CC1	14.3	1.88	2.89	14.9	4.21	2.88	45.4	8.04	3.21	16.5	12.5	10.2	6.8	4.14	
CC(=O)O[C@@H]1CC2[C@@H](CCC3Cc4nc5c(nc4C[C@@]32C)CC2CC[C@@H]3C(CC[C@@]4(C)C3CC[C@@H]4C(C)CCCC(C)C)[C@@]2(C)C5)C2C[C@@H]3OC4(CCC(C)CO4)C(C)[C@@H]3[C@]21C (stereo partly specified)	> 100	> 100	> 100	> 100	> 100	> 100	87.1	> 100	> 100		> 100	> 100	> 100	> 100	> 100
C/C(=N\Nc1ncnc2ccccc12)c1ccccn1	17.9	> 9.41		35.5	34.4	> 56.8	1.13	7.2	32.6	33.9	64.6	2.41	> 4.64	1.62	
CNc1nc(=O)c(C#N)c(-c2ccc(C)cc2)s1	> 100	> 100	> 100	> 100	> 100	> 100	> 100		> 100	> 100	> 100	> 100	> 100		> 100
CCOC(=O)c1[nH]n(-c2ccccc2)c(=O)c1C=NC(=S)C(N)=S	68.5	> 100	> 100	> 100	> 100	> 100	> 100	> 100	> 100	> 100	> 100	> 100	> 100		> 100
Cc1cc2nc(NS(=O)(=O)c3cc(C)c(Cl)cc3S)[nH]c2cc1C	> 100	> 100	> 100	> 100	> 100	> 100		> 100	> 100	> 100	> 100	> 100	> 100	> 100	> 100
CCOC(=S)SC/C(=N\OC(C)(C)OC)c1ccccc1	> 100	65.2	> 100	> 100	> 100	> 100	> 100	> 100	> 100	43.9	> 100	> 100	56		35.9
COC1=CC(=O)N(C(=O)[C@@H](OC(=O)[C@@H]2CCCN2C(=O)[C@@H]2CCCN2C(=O)[C@H](CC(C)C)N(C)C(=O)[C@@H](NC(=O)[C@@H](NC(=O)OCc2ccccc2)C(C)C)C(C)C)C(C)C)[C@H]1Cc1ccccc1 (Cbz-VV[NMeL]PP-X28)	> 100		61.9	> 100	> 100	> 100	> 100	> 100	> 100	28.6	> 100	> 100	> 100	> 100	
CC1(C)C(C(=O)OC(C#N)c2cccc(OCC(=O)OCc3ccccc3)c2)C1(C)C (stereo unspecified)	> 100	62.7	> 100	> 100	> 100	> 100	> 100	> 100	> 100	> 100	> 100	> 100	> 100		
CCN(CC)CCNc1ccc2nnn3c4ccc(OC(C)=O)cc4c(=O)c1c23	14.6		16	27.2	15.5	13.6	7.62	18.1	> 40.6	30.7	24	16.7	> 19.8	5.56	
